Test results reported in patent US20080096950A1, “Compounds Useful In Therapy” (priority 2006, published 2008).

Target: T1, Progesterone receptor (PR) (Homo sapiens, UniProt P06401)
T1 construct: endogenous in cells; host or cells: T47D human breast mammary carcinoma cells
T1 sequence (P06401 1-933): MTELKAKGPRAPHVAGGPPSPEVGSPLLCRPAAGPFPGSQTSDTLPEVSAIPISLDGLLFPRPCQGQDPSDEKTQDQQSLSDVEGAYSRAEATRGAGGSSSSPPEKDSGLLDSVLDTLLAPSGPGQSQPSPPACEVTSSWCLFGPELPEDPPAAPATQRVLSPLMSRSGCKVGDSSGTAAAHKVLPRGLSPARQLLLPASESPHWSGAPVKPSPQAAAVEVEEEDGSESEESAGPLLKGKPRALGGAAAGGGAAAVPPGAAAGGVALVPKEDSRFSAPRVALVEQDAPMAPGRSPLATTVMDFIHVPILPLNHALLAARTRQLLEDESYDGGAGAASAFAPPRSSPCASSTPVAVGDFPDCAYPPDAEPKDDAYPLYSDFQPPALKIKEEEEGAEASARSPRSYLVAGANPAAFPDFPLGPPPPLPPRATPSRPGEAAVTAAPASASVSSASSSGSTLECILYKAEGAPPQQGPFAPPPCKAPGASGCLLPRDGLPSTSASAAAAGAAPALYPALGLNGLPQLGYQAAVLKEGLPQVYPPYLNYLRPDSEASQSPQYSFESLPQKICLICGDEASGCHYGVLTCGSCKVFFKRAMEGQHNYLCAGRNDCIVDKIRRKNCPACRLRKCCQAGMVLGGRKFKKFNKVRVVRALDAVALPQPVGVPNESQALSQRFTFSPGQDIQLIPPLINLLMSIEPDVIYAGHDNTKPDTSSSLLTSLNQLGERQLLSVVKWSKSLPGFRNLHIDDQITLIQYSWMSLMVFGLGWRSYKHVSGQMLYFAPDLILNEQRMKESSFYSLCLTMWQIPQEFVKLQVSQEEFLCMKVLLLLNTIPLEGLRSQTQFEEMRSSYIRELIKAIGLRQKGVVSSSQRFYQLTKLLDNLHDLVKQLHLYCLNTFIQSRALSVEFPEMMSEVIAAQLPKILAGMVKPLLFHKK
Experiment: In vitro functional assay for progesterone receptor (PR) antagonists: inhibition of progesterone-induced alkaline phosphatase expression in T47D cells
Assay type: cell-based
Conditions: antagonist format; T47D human mammary carcinoma cells; alkaline phosphatase inhibition vs 5 nM progesterone
Description: 1.0 In Vitro Functional Assay for Progesterone Receptor (PR) Antagonists, Agonists and Modulators
The assay for PR antagonism takes advantage of the extensively reported modulation of alkaline phosphatase (AP) expression in human breast T47D mammary carcinoma cells {Beck, et al., D. P. (1993). The progesterone antagonist RU486 acquires agonist activity upon stimulation of cAMP signalling pathways. Proc Natl Acad Sci U S A 90, 4441-4445; Fensome, et al. (2002). New progesterone receptor antagonists: 3,3-disubstituted-5-aryloxindoles. Bioorg. Med. Chem. Lett., 12, 3487-3490; Zhang et al., (2002a). 6-Aryl-1,4-dihydro-benzo d 1,3 oxazin-2-ones: a novel class of potent, selective, and orally active nonsteroidal progesterone receptor antagonists. J. Med. Chem., 45, 4379-4382; Zhang et al., (2003). Novel 6-aryl-1,4-dihydrobenzo d oxazine-2-thiones as potent, selective, and orally active nonsteroidal progesterone receptor agonists. Bioorg. Med. Chem. Lett., 13, 1313-1316; Zhang et al., (2002b). Potent nonsteroidal progesterone receptor agonists: synthesis and SAR study of 6-aryl benzoxazines. Bioorg. Med. Chem. Lett., 12, 787-790; Zhang, Z. et al., (2000). In vitro characterization of trimegestone: a new potent and selective progestin. Steroids 65, 637-643.}. […] In the absence of progesterone any agonist activity is also observed as an induction of AP activity. By running the assay in two formats (± progesterone (P4)), compounds behaving as PR antagonists, agonists, partial agonists or modulators with mixed agonist/antagonist activity can be identified.
Briefly, T47D cells are grown by propagating in DMEM with phenol red+10% FCS+2 mM Glutamine at 37° C./5% CO2. At 70-80% confluence, the media is exchanged for phenol red free DMEM+5% CS-FCS (Assay media). Cells are incubated overnight in assay media then harvested and frozen in assay media containing 10% DMSO at 1.5e7 cells/mL in 2 mL aliquots using a Planer and immediately stored in liquid nitrogen. V1als are removed from liquid nitrogen storage and immediately thawed in a water bath at 37° C. The cell suspension is added dropwise to 20 mL of assay media, then the tube centrifuged at 1000 rpm for 4 minutes, the supernatant is discarded and the pellet re-suspended in 20 mL assay media. T47D cells are then plated at 8750 cells/well in 35 μL assay media in sufficient white solid 384 well TC plates for the assay. For the agonist format assay a further 10 μL of assay media is added to each well. These plates are then cultured for 3-6 hours at 37° C./5% CO2 before compound addition.
Compounds are prepared by in 100% DMSO, half log concentrations from 4 mM in 384 well plates 5 μL/well (referred to here as ‘grandmother plates’). Progesterone is 100 μM made up in ethanol and PBS (i.e. add 1 mL ethanol to progesterone initially to help dissolving) and stored in 0.5-1 mL aliquots at −20° C.
Using a multidrop (Thermolabsystems), 60 μL/well of buffer is added to a 384 well plate—this will be the ‘mother plate’. Add 45 μLwell buffer to grandmother plate using the multidrop (=400 μM 10% DMSO dilution). Mixed and spun to remove air bubbles.
20 μL is taken from the grandmother plate (400 μM 10% DMSO) and added to the mother plate (=100 μM 2.5% DMSO). Mixed and spun to remove air bubbles
The PlateMate Plus was used to add 5 μL MAX/MIN to cell plates
Then 5 μL compounds are added from the mother plate(after removing max/min Platemate tips: columns 1 and 24)
25 nM progesterone in assay media is prepared from 100 μM stock (12.5 μL progesterone/50 mL media), from which 10 μL per well is transferred to the assay plate using the Platemate Plus (already containing cells & compound).
The cell plates are incubated @ 37° C., 5% CO2 overnight (at least 16 hours). […]

SMILES	IC50 [nM]
Cc1cc(Oc2c(C3CC3)nn(C3CCS(=O)(=O)C3)c2C2CC2)cc(C)c1C#N (single isomer, unassigned) [Example 9, 4-[3,5-Dicyclopropyl-1-(1,1-dioxo-tetrahydro-1λ^6*-thiophen-3-yl)-1H-pyrazol-4-yloxy]-2,6-dimethyl-benzonitrile]	25.9
Cc1cc(Oc2c(C3CC3)nn(C3CS(=O)(=O)C3)c2C2CC2)cc(C)c1C#N [Example 2, 4-[3,5-Dicyclopropyl-1-(1,1-dioxo-thietan-3-yl)-1H-pyrazol-4-yloxy]-2,6-dimethyl-benzonitrile]	14.7
Cc1cc(Oc2c(C3CCC3)nn(C3CCS(=O)(=O)C3)c2C)cc(C)c1C#N (racemic) [Example 13, rac-4-[3-Cyclobutyl-1-(1,1-dioxo-tetrahydro-1λ^6-thiophen-3-yl)-5-methyl-1H-pyrazol-4-yloxy]-2,6-dimethyl-benzonitrile]	202
Cc1cc(Oc2c(C3CC3)nn(C3CS(=O)(=O)C3)c2C)cc(C)c1C#N [Example 10, 4-(3-Cyclopropyl-5-methyl-1-(1,1-dioxo-thietan-3-yl)-1H-pyrazol-4-yloxy)-2,6-dimethyl-benzonitrile]	27.6
Cc1cc(Oc2c(C)nn(C3CS(=O)(=O)C3)c2C2CC2)cc(C)c1C#N [Example 11, 4-(3-Methyl-5-cyclopropyl-1-(1,1-dioxo-thietan-3-yl)-1H-pyrazol-4-yloxy)-2,6-dimethyl-benzonitrile]	50.4
Cc1cc(Oc2c(C)nn(C3CCS(=O)(=O)C3)c2C2CCC2)cc(C)c1C#N (racemic) [Example 12, rac-4-[5-Cyclobutyl-1-(1,1-dioxo-tetrahydro-1λ^6-thiophen-3-yl)-3-methyl-1H-pyrazol-4-yloxy]-2,6-dimethyl-benzonitrile]	1490
Cc1cc(Oc2c(C3CC3)nn(C3CCS(=O)(=O)CC3)c2C2CC2)cc(C)c1C#N [Example 5, 4-[3,5-Dicyclopropyl-1-(1,1-dioxo-hexahydro-1 λ^6-thiopyran-4-yl)-1H-pyrazol-4-yloxy]-2,6-dimethyl-benzonitrile]	91.3
Cc1cc(Oc2c(C3CC3)nn(C3CS(=O)(=O)C3)c2Cl)cc(C)c1C#N [Example 20, 4-[5-Chloro-3-cyclopropyl-1-(1,1-dioxo-1λ^6-thietan-3-yl)-1H-pyrazol-4-yloxy]-2,6-dimethyl-benzonitrile]	22
Cc1cc(Oc2c(Cl)nn(C3CS(=O)(=O)C3)c2C2CC2)cc(C)c1C#N [Example 21, 4-[3-Chloro-5-cyclopropyl-1-(1,1-dioxo-1λ^6-thietan-3-yl)-1H-pyrazol-4-yloxy]-2,6-dimethyl-benzonitrile]	108
Cc1cc(Oc2c(C)nn(C3CCS(=O)(=O)C3)c2C2CC2)cc(C)c1C#N (racemic) [Example 14, rac-4-[5-Cyclopropyl-1-(1,1-dioxo-tetrahydro-1λ^6-thiophen-3-yl)-3-methyl-1H-pyrazol-4-yloxy]-2,6-dimethyl-benzonitrile]	133

Further lines, results first:

IC50 [nM]	SMILES
33.8	Cc1cc(Oc2c(C3CC3)nn(C3CCS(=O)(=O)C3)c2C2CC2)cc(C)c1C#N (single isomer, unassigned) [Example 8, 4-[3,5-Dicyclopropyl-1-(1,1-dioxo-tetrahydro-1λ^6-thiophen-3-yl)-1H-pyrazol-4-yloxy]-2,6-dimethyl-benzonitrile]
56.3	Cc1cc(Oc2c(C3CC3)nn(C3CCOCC3)c2C2CC2)cc(C)c1C#N [Example 6, 4-[3,5-Dicyclopropyl-1-(tetrahydro-pyran-4-yl)-1H-pyrazol-4-yloxy]-2,6-dimethyl-benzonitrile]
13.8	Cc1cc(Oc2c(C3CC3)nn(C3CCS(=O)(=O)C3)c2C2CC2)cc(C)c1C#N (racemic) [Example 7, rac-4-[3,5-Dicyclopropyl-1-(1,1-dioxo-tetrahydro-1λ^6-thiophen-3-yl)-1H-pyrazol-4-yloxy]-2,6-dimethyl-benzonitrile]
67.4	Cc1cc(Oc2c(C3CC3)nn(C3CCOC3)c2C2CC2)cc(C)c1C#N (stereo not drawn) [Example 3, 4-[3,5-Dicyclopropyl-1-(tetrahydro-furan-3-yl)-1 H-pyrazol-4-yloxy]-2,6-dimethyl-benzonitrile]
82.6	Cc1cc(Oc2c(C3CC3)nn(C3COC3)c2C2CC2)cc(C)c1C#N [Example 1, 4-(3,5-Dicyclopropyl-1-oxetan-3-yl-1H-pyrazol-4-yloxy)-2,6-dimethyl-benzonitrile]
